# How the values were obtained:
# human TLR7 = molecular target: T1, human TLR7 (Homo sapiens, UniProt Q9NYK1); test: HEK293 NFKB reporter assay, human TLR7; format: cell-based; conditions: HEK293 NFKB reporter cells expressing human TLR7; read-out: HEK293 hTLR7 EC50
# T1 construct: host or cells: HEK293 reporter cells
# T1 sequence (Q9NYK1 27-1049): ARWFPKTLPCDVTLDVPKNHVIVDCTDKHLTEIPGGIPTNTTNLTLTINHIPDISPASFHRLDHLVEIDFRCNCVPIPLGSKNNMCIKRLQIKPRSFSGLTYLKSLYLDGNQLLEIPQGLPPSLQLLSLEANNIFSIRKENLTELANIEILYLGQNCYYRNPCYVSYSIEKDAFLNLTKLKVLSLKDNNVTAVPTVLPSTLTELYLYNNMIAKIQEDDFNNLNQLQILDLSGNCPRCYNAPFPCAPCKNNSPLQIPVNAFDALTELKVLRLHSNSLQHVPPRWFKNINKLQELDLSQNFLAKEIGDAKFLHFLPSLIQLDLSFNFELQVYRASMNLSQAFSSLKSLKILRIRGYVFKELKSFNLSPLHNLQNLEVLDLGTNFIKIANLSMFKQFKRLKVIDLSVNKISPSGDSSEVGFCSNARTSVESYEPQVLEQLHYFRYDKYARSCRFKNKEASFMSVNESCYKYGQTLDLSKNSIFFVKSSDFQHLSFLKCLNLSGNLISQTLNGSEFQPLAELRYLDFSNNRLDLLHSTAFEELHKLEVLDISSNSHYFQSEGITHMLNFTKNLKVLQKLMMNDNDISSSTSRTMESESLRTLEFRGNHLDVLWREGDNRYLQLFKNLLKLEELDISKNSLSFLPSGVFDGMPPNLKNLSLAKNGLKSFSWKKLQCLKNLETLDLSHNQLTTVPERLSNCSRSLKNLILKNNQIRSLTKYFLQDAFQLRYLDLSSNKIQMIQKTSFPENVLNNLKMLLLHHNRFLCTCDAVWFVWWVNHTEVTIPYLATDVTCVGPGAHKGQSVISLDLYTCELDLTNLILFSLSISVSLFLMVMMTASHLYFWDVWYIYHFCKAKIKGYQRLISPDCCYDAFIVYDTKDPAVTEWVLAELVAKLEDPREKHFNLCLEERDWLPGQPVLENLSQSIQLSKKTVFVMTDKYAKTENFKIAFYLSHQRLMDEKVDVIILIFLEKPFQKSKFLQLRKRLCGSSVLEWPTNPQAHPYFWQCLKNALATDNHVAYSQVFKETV
# Method: (§1) Each compound was synthesized, purified, and characterized by mass spectrometry and shown to have the mass indicated. Additional experimental procedures are found in the Examples. Activity against HEK293 NFKB reporter cells expressing human TLR7 or human TLR8 was measured according to Example 202.
# (§2) HEK293 reporter cells expressing human TLR7 or human TLR8 were purchased from Invivogen and vendor protocols were followed for cellular propagation and experimentation. Briefly, cells were grown to 80-85% confluence at 5% CO2 in DMEM supplemented with 10% FBS, Zeocin, and Blasticidin. Cells were then seeded in 96-well flat plates at 4×10^4 cells/well with substrate containing HEK detection medium and immunostimulatory molecules. Activity was measured using a plate reader at 620-655 nm wavelength.
# human TLR8 = molecular target: T2, human TLR8 (Homo sapiens, UniProt Q9NR97); test: HEK293 NFKB reporter assay, human TLR8; format: cell-based; conditions: HEK293 NFKB reporter cells expressing human TLR8; read-out: HEK293 hTLR8 EC50
# T2 construct: host or cells: HEK293 reporter cells
# T2 sequence (Q9NR97 27-1041): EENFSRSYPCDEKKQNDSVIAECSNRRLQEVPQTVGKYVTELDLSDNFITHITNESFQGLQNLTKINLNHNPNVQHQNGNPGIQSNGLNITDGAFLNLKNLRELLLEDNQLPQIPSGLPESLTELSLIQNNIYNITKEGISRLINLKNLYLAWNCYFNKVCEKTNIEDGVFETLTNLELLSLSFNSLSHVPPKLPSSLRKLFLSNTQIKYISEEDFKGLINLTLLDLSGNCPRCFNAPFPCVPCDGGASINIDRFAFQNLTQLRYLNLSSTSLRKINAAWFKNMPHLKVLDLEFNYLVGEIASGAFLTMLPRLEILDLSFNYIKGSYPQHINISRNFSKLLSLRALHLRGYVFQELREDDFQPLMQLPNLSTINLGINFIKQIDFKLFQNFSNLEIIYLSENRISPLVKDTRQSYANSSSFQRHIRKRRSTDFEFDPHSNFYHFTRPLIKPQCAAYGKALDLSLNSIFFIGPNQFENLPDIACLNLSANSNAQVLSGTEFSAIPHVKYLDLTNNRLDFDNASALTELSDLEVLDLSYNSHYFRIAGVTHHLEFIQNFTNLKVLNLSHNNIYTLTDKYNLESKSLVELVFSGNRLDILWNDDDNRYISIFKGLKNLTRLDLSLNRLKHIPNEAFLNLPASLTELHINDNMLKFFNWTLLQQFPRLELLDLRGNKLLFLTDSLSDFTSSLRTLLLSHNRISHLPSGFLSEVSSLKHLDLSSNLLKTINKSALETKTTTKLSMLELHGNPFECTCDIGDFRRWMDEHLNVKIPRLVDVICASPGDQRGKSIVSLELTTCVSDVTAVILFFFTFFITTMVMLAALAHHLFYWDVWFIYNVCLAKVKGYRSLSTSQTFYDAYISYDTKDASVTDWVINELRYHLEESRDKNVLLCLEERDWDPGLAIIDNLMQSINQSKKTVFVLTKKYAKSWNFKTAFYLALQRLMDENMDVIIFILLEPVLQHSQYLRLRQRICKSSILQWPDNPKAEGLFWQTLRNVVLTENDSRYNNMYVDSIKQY
# Method: as §1, §2
SMILES,EC50 (human TLR7),EC50 (human TLR8)
CCCN(C[C@H]1CC[C@@H](CN)CC1)C(=O)C1=Cc2sccc2N=C(N)C1 [TAZ-118],,4.44 µM
"CCCN(CCC)C(=O)C1=Cc2sccc2N=C(N)C1 [TAZ-2, 5-amino-N,N-dipropyl-6H-thieno[3,2-b]azepine-7-carboxamide]",,2.39 µM
CCCN(C[C@H]1C[C@H](CN)C1)C(=O)C1=Cc2sccc2N=C(N)C1 [TAZ-69],,4.3 µM
CCCN(CCCNC(=O)OC1CCC1)C(=O)C1=Cc2sc(CN3CCNCC3)cc2N=C(N)C1 [TAZ-169],3.17 µM,
CCCN(Cc1ncco1)C(=O)C1=Cc2sc(CC3CNC3)cc2N=C(N)C1 [TAZ-256],,3.41 µM
"CCCN(Cc1ccc(CN)cc1)C(=O)C1=Cc2sccc2N=C(N)C1 [TAZ-30, 5-amino-N-(4-(aminomethyl)benzyl)-N-propyl-6H-thieno[3,2-b]azepine-7-carboxamide]",,0.641 µM
CCCN(OCC)C(=O)C1=Cc2sc(CN3C[C@@H]4CN(C(=O)OC(C)(C)C)C[C@@H]4C3)cc2N=C(N)C1 [TAZ-242],,3.78 µM
CCCN(OCC)C(=O)C1=Cc2sc(CN3CC(CN)C3)cc2N=C(N)C1 [TAZ-211],,4.32 µM
CCCN(C[C@H]1CC[C@H](CN)CC1)C(=O)C1=Cc2sccc2N=C(N)C1 [TAZ-97],,> 9 µM
CCCN(CCC)C(=O)C1=Cc2sc(COCCN)cc2N=C(N)C1 [TAZ-81],,7.95 µM
CCCN(OCC)C(=O)C1=Cc2sc(CN3C[C@H]4CNC[C@H]4C3)cc2N=C(N)C1 [TAZ-247],,0.418 µM
CCCN(OCC)C(=O)C1=Cc2sc(CN3CC4(CCN4Cc4ccccc4)C3)cc2N=C(N)C1 [TAZ-246],,1.11 µM
CCCN(CCCNC(=O)OC1CCC1)C(=O)C1=Cc2sc(CN3CCN(c4ccc(C(=O)OC)cc4)CC3)cc2N=C(N)C1 [TAZ-180],3.65 µM,
CCCN(OCC)C(=O)C1=Cc2sc(CN3C[C@H]4CN(C(=O)OC(C)(C)C)C[C@@H]4C3)cc2N=C(N)C1 [TAZ-248],,1.11 µM
CCCN(OCc1ccc(OC)cc1)C(=O)C1=Cc2sccc2N=C(N)C1 [TAZ-101],,0.203 µM
CCCN(OCC)C(=O)C1=Cc2sc(C#CC3CCN(C(=O)OC(C)(C)C)CC3)cc2N=C(N)C1 [TAZ-173],7.69 µM,
CCCN(OCC)C(=O)C1=Cc2sc(C#CC3CN(C(=O)OC(C)(C)C)C3)cc2N=C(N)C1 [TAZ-187],,0.964 µM
CCCN(OCC)C(=O)C1=Cc2sc(C#CC3(O)CN(C(=O)OC(C)(C)C)C3)cc2N=C(N)C1 [TAZ-188],,7.8 µM
CCCN(OCC)C(=O)C1=Cc2sc(CN3CCC(N)CC3)cc2N=C(N)C1 [TAZ-243],,0.164 µM
"CCCN(CCCNC(=O)OC1CCC1)C(=O)C1=Cc2sc(CC3CCNCC3)cc2N=C(N)C1 [TAZ-185, cyclobutyl N-[3-[[5-amino-2-(4-piperidylmethyl)-6H-thieno[3,2-b]azepine-7-carbonyl]-propyl-amino]propyl]carbamate]",3.7 µM,
CCCN(C(=O)C1=Cc2sccc2N=C(N)C1)N(C)CC [TAZ-100],,> 9 µM
CCCN(Cc1ccc(CN2CCNCC2)cc1)C(=O)C1=Cc2sccc2N=C(N)C1 [TAZ-37],> 9 µM,
"CCCN(CC#CCN)C(=O)C1=Cc2sccc2N=C(N)C1 [TAZ-17, 5-amino-N-(4-aminobut-2-ynyl)-N-propyl-6H-thieno[3,2-b]azepine-7-carboxamide]",,4.1 µM
CCCN(CCC)C(=O)C1=Cc2scc(C)c2N=C(N)C1 [TAZ-168],,3.87 µM

# The remaining lines, values ahead:
EC50 (human TLR7),EC50 (human TLR8),SMILES
> 9 µM,> 9 µM,CCCN(Cc1ccc(CNC(=O)OC(C)(C)C)cn1)C(=O)C1=Cc2sccc2N=C(N)C1 [TAZ-42]
1.62 µM,,CN(C)Cc1ccc(CN(CCC(F)(F)F)C(=O)C2=Cc3sc(CCCCCNC(=O)OC(C)(C)C)cc3N=C(N)C2)cc1 [TAZ-116]
,2.96 µM,CCCN(OCC)C(=O)C1=Cc2sc(CN3Cc4ccc(NC(=O)CCN)cc4C3)cc2N=C(N)C1 [TAZ-201]
1.81 µM,,CCCN(CCCNC(=O)OC1CCC1)C(=O)C1=Cc2sc(CCC3CNC3)cc2N=C(N)C1 [TAZ-197]
,2.54 µM,CCCN(OCC)C(=O)C1=Cc2sc(CC3CCN(C(=O)OC(C)(C)C)CC3)cc2N=C(N)C1 [TAZ-179]
4.21 µM,,CCCN(CCCNC(=O)CC(C)(C)C)C(=O)C1=Cc2sc(CN3CCNCC3)cc2N=C(N)C1 [TAZ-139]
2.88 µM,,CCCN(C[C@H]1CC[C@@H](CNC(=O)OC(C)(C)C)CC1)C(=O)C1=Cc2sccc2N=C(N)C1 [TAZ-119]
,4.94 µM,"CCCN(CCC)C(=O)C1=Cc2sc(CCCCCN)cc2N=C(N)C1 [TAZ-14, 5-amino-2-(5-aminopentyl)-N,N-dipropyl-6H-thieno [3,2-b]azepine-7-carboxamide]"
3.13 µM,,CCCN(CCCNC(=O)OC1CCC1)C(=O)C1=Cc2sc(CCC3CCN(C(=O)OC(C)(C)C)CC3)cc2N=C(N)C1 [TAZ-167]
2.03 µM,,CCCN(CCCNC(=O)OC1CCC1)C(=O)C1=Cc2sc(CC3CNC3)cc2N=C(N)C1 [TAZ-181]
> 9 µM,,CCCN(CCC)C(=O)C1=Cc2sc(COCCCN)cc2N=C(N)C1 [TAZ-73]
0.827 µM,,CCCN(CCCNC(=O)C(C)(C)C)C(=O)C1=Cc2sc(CCCCCN)cc2N=C(N)C1 [TAZ-142]
,0.311 µM,"CCCN(Cc1ccc(CNC)cc1)C(=O)C1=Cc2sc(CCCCCN(C)C)cc2N=C(N)C1 [TAZ-65, 5-amino-2-[5-(dimethylamino)pentyl]-N-[[4-(methylaminomethyl)phenyl]methyl]-N-propyl-6H-thieno[3,2-b]azepine-7-carboxamide]"
,0.631 µM,CCCN(C[C@H]1CC[C@H](CNC(=O)OC(C)(C)C)CC1)C(=O)C1=Cc2sccc2N=C(N)C1 [TAZ-98]
,2.83 µM,CCCN(CCC)C(=O)C1=Cc2sc(CNC(=O)CN)cc2N=C(N)C1 [TAZ-92]
7.77 µM,,"CCCN(CC#CCNC(=O)OC(C)(C)C)C(=O)C1=Cc2sc(Br)cc2N=C(N)C1 [TAZ-10, tert-butyl N-[4-[(5-amino-2-bromo-6H-thieno[3,2-b]azepine-7-carbonyl)-propyl-amino]but-2-ynyl]carbamate]"
4.63 µM,,CCCN(C(=O)C1=Cc2sc(CCCCCNC(=O)OC(C)(C)C)cc2N=C(N)C1)C1CC1 [TAZ-123]
,6.11 µM,"CCCN(CC#CCNC(=O)OC(C)(C)C)C(=O)C1=Cc2sccc2N=C(N)C1 [TAZ-16, tert-butyl N-[4-[(5-amino-6H-thieno[3,2-b]azepine-7-carbonyl)-propyl-amino]but-2-ynyl]carbamate]"
2.71 µM,,CCCN(CC1CC1)C(=O)C1=Cc2sc(CCCCCNC(=O)OC(C)(C)C)cc2N=C(N)C1 [TAZ-125]
1.88 µM,,CCCN(Cc1ccc(CN(C)C)cc1C(F)(F)F)C(=O)C1=Cc2sc(CCCCCNC(=O)OC(C)(C)C)cc2N=C(N)C1 [TAZ-143]
